One assay addresses T1, PI3K delta (Homo sapiens, UniProt O00329).
T1 construct: for the full-length p110-d subunit are generated and fused by overlapping PCR; p85(iSH2) fusion partner (see partner chain) (N); His tag (C); made in house; host or cells: baculovirus; Tn5 (Trichoplusia ni) or TiniPro insect cells
Briefly: PI3K delta kinase assay (Kinase-Glo luminescence). Format: biochemical. How it is done:
(§1) In a more preferred assay, the kinase reaction is performed in a final volume of 10 μL per well of a low volume non binding CORNING, 384 well black plate (Cat. No. #3676). The final concentrations of ATP and phosphatidyl inositol (PI) in the assay are 1 μM and 10 μg/mL respectively. The reaction is started by the addition of ATP.
(§2) The components of the assay are added per well as follows:
(§3) […] in 90% DMSO per well, in columns 1-20, 8 concentrations (1/3 and 1/3.33 serial dilution step) in single. • Low control: […] of 90% DMSO in half the wells of columns 23-24 (0.45% in final). • High control: […] of reference compound (e.g. compound of Example 7 in WO 2006/122806) in the other half of columns 23-24 (2.5 μM in final). • Standard: […] of reference compound as just mentioned diluted as the test compounds in columns 21-22 • 20 mL ‘buffer’ are prepared per assay: • 200 μL of 1M TRIS HCl pH7.5 (10 mM in final) • 60 μL of 1M MgCl2 (3 mM in final) • 500 μL of 2M NaCl (50 mM in final) • 100 μL of 10% CHAPS (0.05% in final) • 200 μL of 100 mM DTT (1 mM in final) • 18.94 mL of nanopure water • 10 mL ‘PI’ are prepared per assay: • 200 μL of 1 mg/ml L-alpha-Phosphatidylinositol (Liver Bovine, Avanti Polar Lipids Cat. No. 840042C MW=909.12) prepared in 3% OctylGlucoside (10 μg/ml in final) • 9.8 mL of ‘buffer’ • 10 mL ‘ATP’ are prepared per assay: • 6.7 μL of 3 mM stock of ATP giving a final concentration of 1 μM per well • 10 mL of ‘buffer’ • 2.5 mL of each PI3K construct are prepared per assay in ‘PI’ with the following final concentration: • 10 nM PI3K alfa EMV B1075 • 25 nM beta EMV BV949 • 10 nM delta EMV BV1060 • 150 nM gamma EMV BV950 • 5 μL of ‘PI/PI3K’ are added per well. • 5 μl ‘ATP’ are added per well to start the reaction. • The plates are then incubated at room temperature for 60 minutes (alfa, beta, delta) or 120 minutes (gamma). • The reaction is terminated by the addition of 10 μL Kinase-Glo (Promega Cat. No. #6714). • The assay plates are read after 10 minutes in Synergy 2 reader (BioTek, Vermont USA) with an integration time of 100 milliseconds and sensitivity set to 191. • Output: The High control is around 60'000 counts and the Low control is 30'000 or lower • This luminescence assay gives a useful Z′ ratio between 0.4 and 0.7
PI3Kγ BV-1060 p85(iSH2)-Gly Linker-p110d(Full-Length)-C-Term his Tag
(§4) IC50 is determined by a four parameter curve fitting routine that comes along with “excel fit”. […] Alternatively, IC50 values are calculated using idbsXLfit model 204, which is a 4 parameter logistic model.
For orientation: Kinase-Glo reads ATP consumption through a luciferase reaction.

A further assay concerns the target T2, PI3K beta (Homo sapiens, UniProt P42338).
T2 construct: for the full-length p110-b subunit are generated and fused by overlapping PCR; p85(iSH2) fusion partner (see partner chain) (N); His tag (C); made in house; host or cells: baculovirus; Tn5 (Trichoplusia ni) or TiniPro insect cells
The assay is described as follows: PI3K beta kinase assay (Kinase-Glo luminescence). Format: biochemical. How it is done:
as §1, §2, §3
PI3Kβ BV-949 p85(iSH2)-Gly Linker-p110b(Full-Length)-C-Term his Tag
as §4

Another assay has as its target T3, PI3K alpha (Homo sapiens, UniProt P42336).
T3 construct: p85(iSH2) fusion partner (see partner chain) (N); His tag (C); made in house; host or cells: baculovirus; Tn5 (Trichoplusia ni) or TiniPro insect cells
Briefly: PI3K alpha kinase assay (Kinase-Glo luminescence). In kind it is biochemical. The essentials:
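Compounds are titrated at 8 concentrations and mixed with PI3Kα protein (EMV B1075, 10 nM) in phosphatidylinositol (10 μg/mL). ATP at 1 μM starts the 60-minute room-temperature reaction, which is stopped with Kinase-Glo before luminescence reading. Four-parameter curve fitting gives IC50.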

Assay [1] relates to PKB Ser473 phosphorylation in Rat1-myr-HA-p110 alpha cells. Briefly: Reverse protein array assay, PKB Ser473 phosphorylation in Rat1-myr-p110 alpha cells. Format: cell-based. Particulars: 0.5 h, pAkt Ser473, 30 minutes compound incubation, read-out: p-PKB IC50. Summed up:
(§5)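 Compound exposure lasted 30 min in Rat1 cells bearing membrane-targeted HA-p110 isoforms, using 8 serial concentrations. Arrayed lysates, each spotted at four dilutions, gave relative fluorescence signals for phospho-Ser473 PKB.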

Assay [2] concerns PKB Ser473 phosphorylation in Rat1-myr-HA-p110 delta cells. Briefly: Reverse protein array assay, PKB Ser473 phosphorylation in Rat1-myr-p110 delta cells. The conditions noted are these: read-out: p-PKB IC50. Format: cell-based. The essentials: as §5
For assay [3], the system named is S6 Ribosomal Protein phosphorylation Ser235/236 in TSC1 null mouse embryo fibroblast (MEF) cells. Briefly: Reverse protein array assay, S6 Ribosomal Protein phosphorylation Ser235/236 in TSC1 null MEF cells. Particulars: 1 h, pS6 ribosomal protein Ser235/236, 60 minutes incubation, read-out: p-S6 IC50. Format: cell-based. The essentials:
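TSC1−/− MEFs, seeded and held ≥20 h at 37 °C/5% CO2, were exposed to 8-step serial compound dilutions (0.02% DMSO final; DMSO vehicle control) for 60 min at 37 °C. Cells were then lysed on ice for 10 min and lysates spotted onto reverse protein array chips.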

Assay [4] relates to PKB Ser473 phosphorylation in Rat1-myr-HA-p110 beta cells. Briefly: Reverse protein array assay, PKB Ser473 phosphorylation in Rat1-myr-p110 beta cells. The conditions noted are these: 0.5 h, pAkt Ser473, 30 minutes incubation, read-out: p-PKB IC50. In kind it is cell-based. The essentials:
as §5

A further assay addresses T4, mTOR (Homo sapiens, UniProt P42345).
T4 construct: purchased Invitrogen Corporation (Carlsbad/CA, USA) PV4753
Briefly: Biochemical assay for m-TOR by TR-FRET. The conditions noted are these: 8 μM ATP, 400 nM GFP-4EBP1, 0.5 nM mTOR. The essentials:
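Enzyme 0.5 nM, GFP-4EBP1 400 nM, ATP 8 μM (all final); 50 mM HEPES pH 7.5, 10 mM MnCl2, 1 mM DTT; rt. Detection: Tb-α-p4EBP1 [pT46] 0.5 nM in EDTA, TR-FRET, 15 min. Reference compound on every plate, 16-point duplicate dilutions.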

Some results are limits rather than exact numbers.

T4 sequence (P42345 1360-2549 limits assumed): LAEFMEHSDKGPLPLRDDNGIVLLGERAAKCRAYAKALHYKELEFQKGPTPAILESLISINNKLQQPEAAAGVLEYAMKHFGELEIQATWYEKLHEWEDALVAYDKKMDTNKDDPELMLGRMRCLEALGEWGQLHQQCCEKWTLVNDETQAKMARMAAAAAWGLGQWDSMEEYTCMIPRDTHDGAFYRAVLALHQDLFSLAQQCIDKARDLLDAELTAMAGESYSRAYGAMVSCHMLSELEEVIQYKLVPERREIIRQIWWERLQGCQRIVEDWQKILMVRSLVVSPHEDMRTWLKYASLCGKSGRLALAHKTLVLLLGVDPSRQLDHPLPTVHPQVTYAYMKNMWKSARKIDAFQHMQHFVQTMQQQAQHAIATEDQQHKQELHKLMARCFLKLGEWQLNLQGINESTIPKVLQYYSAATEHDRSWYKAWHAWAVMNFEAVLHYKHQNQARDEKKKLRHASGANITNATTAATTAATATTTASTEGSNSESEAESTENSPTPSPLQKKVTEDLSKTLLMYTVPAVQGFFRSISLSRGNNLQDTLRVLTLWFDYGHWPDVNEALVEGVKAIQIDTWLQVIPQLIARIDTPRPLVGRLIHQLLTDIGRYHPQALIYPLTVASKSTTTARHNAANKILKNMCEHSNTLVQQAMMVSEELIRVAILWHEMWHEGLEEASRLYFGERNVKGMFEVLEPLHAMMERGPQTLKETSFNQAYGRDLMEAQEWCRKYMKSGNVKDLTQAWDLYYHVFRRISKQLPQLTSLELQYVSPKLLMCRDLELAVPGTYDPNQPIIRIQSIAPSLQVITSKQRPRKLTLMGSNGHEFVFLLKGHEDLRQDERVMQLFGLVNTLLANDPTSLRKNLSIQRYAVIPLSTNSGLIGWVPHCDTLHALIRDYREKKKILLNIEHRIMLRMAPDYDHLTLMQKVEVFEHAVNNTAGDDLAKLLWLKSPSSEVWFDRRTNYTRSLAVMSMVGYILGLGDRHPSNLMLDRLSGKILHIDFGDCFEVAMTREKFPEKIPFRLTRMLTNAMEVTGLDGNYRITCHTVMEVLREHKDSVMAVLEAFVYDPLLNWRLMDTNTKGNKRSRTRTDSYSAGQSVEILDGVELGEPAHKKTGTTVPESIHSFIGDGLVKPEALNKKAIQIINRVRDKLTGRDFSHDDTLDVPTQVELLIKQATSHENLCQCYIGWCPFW
T3 sequence (P42336 with tags, fused parts or gaps limits assumed): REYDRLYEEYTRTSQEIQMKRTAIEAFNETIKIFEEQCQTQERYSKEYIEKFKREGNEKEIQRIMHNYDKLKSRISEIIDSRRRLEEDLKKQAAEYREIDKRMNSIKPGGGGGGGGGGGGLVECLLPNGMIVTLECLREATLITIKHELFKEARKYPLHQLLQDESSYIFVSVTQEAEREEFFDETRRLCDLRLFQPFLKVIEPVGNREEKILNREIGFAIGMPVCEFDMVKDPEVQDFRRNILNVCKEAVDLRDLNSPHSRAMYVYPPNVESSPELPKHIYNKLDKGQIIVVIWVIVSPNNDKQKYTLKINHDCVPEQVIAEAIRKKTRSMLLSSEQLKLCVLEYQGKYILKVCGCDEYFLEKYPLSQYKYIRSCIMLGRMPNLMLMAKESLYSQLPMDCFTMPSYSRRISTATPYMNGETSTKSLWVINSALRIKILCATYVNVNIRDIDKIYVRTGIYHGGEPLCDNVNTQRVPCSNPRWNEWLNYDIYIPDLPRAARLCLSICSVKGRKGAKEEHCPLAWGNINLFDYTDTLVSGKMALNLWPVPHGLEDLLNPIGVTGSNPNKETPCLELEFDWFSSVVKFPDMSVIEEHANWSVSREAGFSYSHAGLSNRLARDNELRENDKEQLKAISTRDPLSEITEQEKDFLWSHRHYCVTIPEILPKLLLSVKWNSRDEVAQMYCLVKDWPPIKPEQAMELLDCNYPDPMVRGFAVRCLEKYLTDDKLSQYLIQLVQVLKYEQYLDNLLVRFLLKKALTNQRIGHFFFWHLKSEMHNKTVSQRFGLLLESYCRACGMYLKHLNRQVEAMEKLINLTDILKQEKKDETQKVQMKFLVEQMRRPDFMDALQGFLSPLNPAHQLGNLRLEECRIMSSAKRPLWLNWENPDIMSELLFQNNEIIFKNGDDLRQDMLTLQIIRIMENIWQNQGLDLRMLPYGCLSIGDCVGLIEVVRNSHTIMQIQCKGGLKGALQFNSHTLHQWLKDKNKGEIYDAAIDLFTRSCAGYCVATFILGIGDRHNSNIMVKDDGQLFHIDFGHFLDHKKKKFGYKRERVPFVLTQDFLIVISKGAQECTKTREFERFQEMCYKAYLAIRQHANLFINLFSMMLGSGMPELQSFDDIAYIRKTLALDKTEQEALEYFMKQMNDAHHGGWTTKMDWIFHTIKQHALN
T2 sequence (P42338 with tags, fused parts or gaps limits assumed): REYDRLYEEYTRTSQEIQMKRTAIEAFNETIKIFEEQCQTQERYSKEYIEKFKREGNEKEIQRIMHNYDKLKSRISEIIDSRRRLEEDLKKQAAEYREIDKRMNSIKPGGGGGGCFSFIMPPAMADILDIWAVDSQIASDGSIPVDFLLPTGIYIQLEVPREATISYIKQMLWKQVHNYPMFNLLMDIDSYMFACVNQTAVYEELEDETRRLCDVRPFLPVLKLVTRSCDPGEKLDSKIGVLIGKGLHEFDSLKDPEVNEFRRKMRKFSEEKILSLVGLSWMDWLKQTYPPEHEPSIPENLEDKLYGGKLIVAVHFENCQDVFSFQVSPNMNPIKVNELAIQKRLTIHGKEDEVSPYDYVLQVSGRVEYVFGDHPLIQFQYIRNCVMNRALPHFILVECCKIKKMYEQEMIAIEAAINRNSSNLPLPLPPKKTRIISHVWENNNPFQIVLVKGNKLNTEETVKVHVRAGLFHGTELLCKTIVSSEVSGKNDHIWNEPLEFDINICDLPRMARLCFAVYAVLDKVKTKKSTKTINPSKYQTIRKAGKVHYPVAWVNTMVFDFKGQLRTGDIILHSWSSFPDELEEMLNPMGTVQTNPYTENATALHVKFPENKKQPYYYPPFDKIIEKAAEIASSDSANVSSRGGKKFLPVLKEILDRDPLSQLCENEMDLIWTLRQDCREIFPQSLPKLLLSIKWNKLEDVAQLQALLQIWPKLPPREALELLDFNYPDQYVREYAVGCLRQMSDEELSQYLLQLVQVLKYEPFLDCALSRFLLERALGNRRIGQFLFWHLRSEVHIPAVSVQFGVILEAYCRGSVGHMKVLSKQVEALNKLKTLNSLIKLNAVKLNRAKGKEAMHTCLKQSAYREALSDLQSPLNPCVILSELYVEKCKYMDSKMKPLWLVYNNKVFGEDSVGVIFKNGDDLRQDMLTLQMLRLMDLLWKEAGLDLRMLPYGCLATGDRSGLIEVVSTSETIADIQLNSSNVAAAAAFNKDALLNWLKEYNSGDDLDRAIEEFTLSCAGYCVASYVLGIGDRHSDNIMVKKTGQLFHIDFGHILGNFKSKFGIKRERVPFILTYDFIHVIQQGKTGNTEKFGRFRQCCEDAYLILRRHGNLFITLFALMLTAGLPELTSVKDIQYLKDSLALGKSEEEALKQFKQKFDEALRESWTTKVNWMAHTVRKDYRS
T1 sequence (O00329 with tags, fused parts or gaps limits assumed): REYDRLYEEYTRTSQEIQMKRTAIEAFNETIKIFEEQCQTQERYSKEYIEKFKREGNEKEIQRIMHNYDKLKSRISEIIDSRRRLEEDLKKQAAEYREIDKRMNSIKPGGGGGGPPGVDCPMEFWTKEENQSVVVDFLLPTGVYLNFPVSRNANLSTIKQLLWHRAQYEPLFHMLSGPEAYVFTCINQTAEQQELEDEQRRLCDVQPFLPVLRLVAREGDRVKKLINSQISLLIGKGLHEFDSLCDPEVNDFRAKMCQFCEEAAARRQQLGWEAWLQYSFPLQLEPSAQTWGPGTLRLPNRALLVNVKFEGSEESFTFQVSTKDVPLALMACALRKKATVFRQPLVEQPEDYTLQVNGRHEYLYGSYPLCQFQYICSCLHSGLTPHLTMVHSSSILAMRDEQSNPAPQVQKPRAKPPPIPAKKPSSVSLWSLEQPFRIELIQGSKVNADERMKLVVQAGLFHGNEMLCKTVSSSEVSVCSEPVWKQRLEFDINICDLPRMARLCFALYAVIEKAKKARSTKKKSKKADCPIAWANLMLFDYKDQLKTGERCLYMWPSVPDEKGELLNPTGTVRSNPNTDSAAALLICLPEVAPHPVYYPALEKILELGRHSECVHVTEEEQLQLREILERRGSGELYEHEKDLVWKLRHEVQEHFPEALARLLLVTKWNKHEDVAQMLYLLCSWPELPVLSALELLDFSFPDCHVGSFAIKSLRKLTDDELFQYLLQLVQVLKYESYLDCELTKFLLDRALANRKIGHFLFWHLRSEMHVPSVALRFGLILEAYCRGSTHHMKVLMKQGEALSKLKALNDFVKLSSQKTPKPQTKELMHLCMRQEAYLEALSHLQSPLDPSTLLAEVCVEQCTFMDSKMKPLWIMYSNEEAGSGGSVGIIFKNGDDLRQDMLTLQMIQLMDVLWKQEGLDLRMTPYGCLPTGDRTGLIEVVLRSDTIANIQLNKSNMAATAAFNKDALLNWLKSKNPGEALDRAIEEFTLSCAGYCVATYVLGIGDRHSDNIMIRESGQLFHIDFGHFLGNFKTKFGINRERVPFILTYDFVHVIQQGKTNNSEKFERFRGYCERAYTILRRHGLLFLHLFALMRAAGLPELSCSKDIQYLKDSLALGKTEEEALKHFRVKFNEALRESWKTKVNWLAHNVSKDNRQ

As usually defined, the IC50 is the concentration at which inhibition is half-maximal. `CCOCc1cc(-c2ccc3ncc4c(c3c2)n(-c2c(C)nn(C)c2C)c(=O)n4C)cnc1N` [Example 166.5, 8-(6-Amino-5-ethoxymethyl-pyridin-3-yl)-3-methyl-1-(1,3,5-trimethyl-1H-pyrazol-4-yl)-1,3-dihydro-imidazo[4,5-c]quinolin-2-one]: the half-maximal inhibitory concentration (IC50) on PI3K delta was found to be 33 nM; on PI3K beta it was 222 nM; at PI3K alpha, 28 nM; in assay [1], 301 nM; in assay [2] it was 833 nM; in assay [3] it was 91.7 nM.
As for `COc1ccc(-c2ccc3ncc4[nH]c(=O)n(-c5cn(C)nc5C)c4c3c2)cc1OC` [Example 111, 8-(3,4-Dimethoxy-phenyl)-1-(1,3-dimethyl-1H-pyrazol-4-yl)-1,3-dihydro-imidazo[4,5-c]quinolin-2-one], the 50% inhibitory concentration (IC50) on PI3K delta was determined as 50 nM; on PI3K beta, 41 nM; in assay [4] it was 13 nM; at PI3K alpha it was 27 nM; in assay [1] it was 10 nM; in assay [2], 18 nM. The half-maximal inhibitory concentration (IC50) in assay [3] is 3 nM.
Take `CCNc1cc(-c2ccc3ncc4c(c3c2)n(-c2cn(C)nc2C)c(=O)n4C)cnc1Cl` [Example 153.2, 8-(6-Chloro-5-ethylamino-pyridin-3-yl)-1-(1,3-dimethyl-1H-pyrazol-4-yl)-3-methyl-1,3-dihydro-imidazo[4,5-c]quinolin-2-one]: the IC50 at mTOR is less than 3 nM; on PI3K delta it was 3 nM; at PI3K beta it was 9 nM; in assay [4], less than 5 nM; on PI3K alpha, 15 nM; in assay [1], less than 5 nM. For the same compound, the IC50 in assay [2] turned out to be 5 nM.
Turning to `CNc1ncc(-c2ccc3ncc4c(c3c2)n(-c2cn(C)nc2Cl)c(=O)n4C)cc1COC` [Example 248.4, 1-(3-Chloro-1-methyl-1H-pyrazol-4-yl)-8-(5-methoxymethyl-6-methylaminopyridin-3-yl)-3-methyl-1,3-dihydro-imidazo[4,5-c]quinolin-2-one], the half-maximal inhibitory concentration (IC50) is 6 nM at mTOR; less than 3 nM at PI3K delta; 8 nM at PI3K beta; 8 nM in assay [4]; 7 nM at PI3K alpha; less than 5 nM in assay [1]. Besides, the half-maximal inhibitory concentration (IC50) in assay [2] was determined as 8 nM.
`Cc1nn(C)cc1-n1c(=O)n(C)c2cnc3ccc(-c4cncc(C(C)(C)CO)c4)cc3c21` [Example 229, 1-(1,3-Dimethyl-1H-pyrazol-4-yl)-8-[5-(2-hydroxy-1,1-dimethyl-ethyl)-pyridin-3-yl]-3-methyl-1,3-dihydro-imidazo[4,5-c]quinolin-2-one]: the IC50 at PI3K delta is 5 nM; at PI3K beta, 8 nM; in assay [4], 275 nM; on PI3K alpha, 8 nM; in assay [1], 279 nM; in assay [2] it was 235 nM. In addition, in assay [3], the IC50 is 11 nM.
Consider `CNc1ncc(-c2ccc3ncc4c(c3c2)n(-c2cn(C)nc2C)c(=O)n4C)cc1COC` [Example 248.3, 1-(1,3-Dimethyl-1H-pyrazol-4-yl)-8-(5-methoxymethyl-6-methylamino-pyridin-3-yl)-3-methyl-1,3-dihydro-imidazo[4,5-c]quinolin-2-one], for which the IC50 is 15 nM at mTOR; less than 3 nM at PI3K delta; 23 nM at PI3K beta; 25 nM in assay [4]; 10 nM at PI3K alpha; 9 nM in assay [1]. Also, the IC50 in assay [2] came to 25 nM.
As to `CNc1ncc(-c2ccc3ncc4c(c3c2)n(-c2cn(C(C)C)nc2C)c(=O)n4C)cc1COC` [Example 248.1, 1-(1-Isopropyl-3-methyl-1H-pyrazol-4-yl)-8-(5-methoxymethyl-6-methylamino-pyridin-3-yl)-3-methyl-1,3-dihydro-imidazo[4,5-c]quinolin-2-one], the half-inhibitory concentration (IC50) at mTOR was 113 nM; at PI3K delta, 4 nM; at PI3K beta it was 71 nM; in assay [4], 81 nM; on PI3K alpha, 20 nM; in assay [1], less than 5 nM. The IC50 in assay [2] was found to be 73 nM.

Values taken from patent US20140005163A1 (NOVARTIS AG, priority 2010, published 2014).
